Key:
Assay type in all cases: in vivo
[1] = tested on: Rice (variety: Nipponbare); test: Test Example 3: promotion of root growth by hydroponics of rice, 0.1 ppm; details: hydroponic solution containing the test compound at 0.1 ppm, average of 4 or 5 individuals
Description: (§1) Test for Evaluating Promotion of Root Growth by Hydroponics of Rice
(§2) Rice (variety: Nipponbare)
A DMSO solution, which contained one of the compounds 2, 6, 7, 16, 20, 33, 34, 36, 37, 38, 40, 41, 43, 44, 45, 46, 47, 48, 50, 51, 52, 53, 54, 55, 56, 61, 64, 67, 68, 71, 72, 73, 74, 75, 76, 79, 80, 81 and 83 of the present invention at a concentration of 1,000 ppm, was added to Hoagland hydroponic solution (Hoagland and Arnon, California Agricultural Experiment Station 1950 Circular 347 pp. 34) of ¼-fold concentration at a volume ratio of 1/10,000. In this manner, hydroponic solutions containing one of the compounds 2, 6, 7, 16, 20, 33, 34, 36, 37, 38, 40, 41, 43, 44, 45, 46, 47, 48, 50, 51, 52, 53, 54, 55, 56, 61, 64, 67, 68, 71, 72, 73, 74, 75, 76, 79, 80, 81 and 83 of the present invention at 0.1 ppm were prepared respectively. As an untreated control plot, a hydroponic solution obtained by adding DMSO to Hoagland hydroponic solution of ¼-fold concentration at a volume ratio of 1/10,000 was used.
Rice seeds were soaked in a 1% aqueous sodium hypochlorite solution for 10 minutes, then soaked in a 70% ethanol solution for surface sterilization, and then washed with distilled water. The sterilized seeds were soaked in a hydroponic solution containing the test compound described above at 0.1 ppm and incubated in a dark place for 3 days at 28° C. to perform treatment for hastening germination.
(§3) Thereafter, 30 ml of hydroponic solution containing the test compound at 0.1 ppm was dispensed in a plastic tube (diameter of 20 mm×height of 113 mm) of which the side was covered with cardboard to block light. A float prepared using a styrene board and vinyl mesh was floated, and the rice seeds that had undergone the treatment for hastening germination were placed on the float on the surface of the hydroponic solution. The seeds were cultivated for 3 days at 26° C., an illuminance of 4,000 lux of the top surface of the tube, a humidity of 50%, and a day length of 16 hours.
The nursery plants of rice obtained after culturing were measured in terms of the length of seminal root by using WinRHIZO system (manufactured by Regent Instruments Inc). For each test plot, an average of the measured values of the seminal root of 4 or 5 individuals was determined.

[2] = tested on: Corn seeds (variety: Pioneer 120 31P41); test: Test Example 14: growth promotion under low-temperature stress by soil drench treatment of corn; details: soil drench 20 ml, low-temperature stress 5 days at 2.5° C., health score 0-5, average of 4 individuals; for change in vivo at 3 ppm: concentration tested 3 ppm
Description: Test for Evaluating Growth Promotion Under Low-Temperature Stress by Soil Drench Treatment of Corn
Corn seeds (variety: Pioneer 120 31P41) were seeded in a culture soil (Aisai) in a plastic pot (φ55 mm×height of 58 mm), and cultivated for 7 days at 20-25° C., an illuminance of about 5,000 lux, and a day length of 16 hours.
A DMSO solution, which contained one of the compounds 1 to 9, 16, 17, 20, 23, 24, 28 to 32, 34, 45, 48, 50, 82 and 85 of the present invention at a concentration of 1,000-fold concentration of each test concentration, was prepared, and then diluted with distilled water to obtain each test solution. After that, 20 ml of the obtained test solution was used to perform soil drench treatment on the foot of the test plants. The test plants were cultivated for 2 days under the conditions of a temperature of 27° C., a humidity of 40-80%, an illuminance of about 5,000 lux, and a day length of 16 hours. This was used as a test plot treated with the compound. A plot having undergone the soil drench treatment with 20 ml of a 0.1% DMSO aqueous solution instead of the above DMSO solution containing the compound was used as an untreated control plot.
The plants having undergone the soil drench treatment were cultivated for 5 days under the conditions of a temperature of 2.5° C., a humidity of 40-80%, an illuminance of about 5,000 lux, and a day length of 16 hours, thereby exposing to low-temperature stress. After the exposure to the low-temperature stress, the plants were cultivated for 4 days under the conditions of a temperature of 27° C., a humidity of 40-80%, an illuminance of about 5,000 lux, and a day length of 16 hours.
After the cultivation, the health of each plant was scored according to the following evaluation index.
5: 4 or more leaves in which ⅔ or more of the area was healthy
4: 3 leaves in which ⅔ or more of the area was healthy
3: 2 leaves in which ⅔ or more of the area was healthy
2: 1 leaf in which ⅔ or more of the area was healthy
1: No leaf in which ⅔ or more of the area was healthy
An average of the scores of the health of 4 individuals was determined.

[3] = tested on: Rice (variety: Nipponbare); test: Test Example 2: promotion of root growth by hydroponics of rice, 1 ppm; details: hydroponic solution containing the test compound at 1 ppm, average of 4 or 5 individuals
Description: as §1, §2
A DMSO solution, which contained one of the compounds 1, 3, 11, 12, 14, 15, 17, 21, 28, 30, 33, 34, 35, 36, 37, 38, 40, 41, 43, 44, 45, 46, 47, 49, 50, 51, 52, 53, 54, 55, 56, 61, 62, 63, 65, 67, 68, 69, 70, 73, 74, 75, 76, 77, 80, 82, 83, 85 and 86 of the present invention at a concentration of 10,000 ppm, was added to Hoagland hydroponic solution (Hoagland and Arnon, California Agricultural Experiment Station 1950 Circular 347 pp. 34) of ¼-fold concentration at a volume ratio of 1/10,000. In this manner, hydroponic solutions containing one of the compounds 1, 3, 11, 12, 14, 15, 17, 21, 28, 30, 33, 34, 35, 36, 37, 38, 40, 41, 43, 44, 45, 46, 47, 49, 50, 51, 52, 53, 54, 55, 56, 61, 62, 63, 65, 67, 68, 69, 70, 73, 74, 75, 76, 77, 80, 82, 83, 85 and 86 of the present invention at 1 ppm were prepared respectively. As an untreated control plot, a hydroponic solution obtained by adding DMSO to Hoagland hydroponic solution of ¼-fold concentration at a volume ratio of 1/10,000 was used. Rice seeds were soaked in a 1% aqueous sodium hypochlorite solution for 10 minutes, then soaked in a 70% ethanol solution for surface sterilization, and then washed with distilled water. The sterilized seeds were soaked in a hydroponic solution containing the test compound described above at 1 ppm and incubated in a dark place for 3 days at 28° C. to perform treatment for hastening germination.
as §3, with “1” for “0.1”
The nursery plants of rice obtained after cultivation were measured in terms of the length of seminal root by using WinRHIZO system (manufactured by Regent Instruments Inc). For each test plot, an average of the measured values of the seminal root of 4 or 5 individuals was determined.

[4] = tested on: Rice (variety: Nipponbare); test: Test Example 1: promotion of root growth by hydroponics of rice, 10 ppm; details: Oryza sativa, hydroponic solution containing the test compound at 10 ppm, average of 4 or 5 individuals, read-out: Relative value of length of seminal root (%-untreated control plot)
Procedure, shortened: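 Surface-sterilised seeds germinated 3 days in the dark at 28° C in hydroponic solution with compound at 10 ppm, then grown 3 days hydroponically with compound at 10 ppm (26° C, 4,000 lux, 16 h day, 50% humidity). Seminal root length measured by image analysis, averaged over 4 or 5 plants per plot.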

Nicotiana benthamiana = test: Test Example 4: growth promotion under low-temperature stress by hydroponics of Nicotiana benthamiana, 10 ppm; details: 10 ppm in medium, low-temperature stress 7 days at 1.5±1.0° C., green leaf area 3 days later, equation (1)
Description: Test for Evaluating Growth Promotion Under Low-Temperature Stress by Hydroponics of Nicotiana benthamiana
A DMSO solution, which contained one of the compounds 1, 8, 9, 13, 18, 19, 22, 23, 29, 32, 33, 34, 39, 40, 41, 43, 44, 51, 53, 54, 55, 56, 58, 60, 62, 63, 64, 65, 67, 69, 71, 73, 74, 75, 77, 79, 82, 83 and 86 of the present invention at a concentration of 10,000 ppm, was prepared. The DMSO solution of the compound of the present invention was added at a volume ratio of 1/1,000 to the Murashige•Scoog medium of a ½-fold concentration (a medium containing 2.3 g of mixed salts for the Murashige•Scoog medium (manufactured by Wako Pure Chemical Industries, Ltd.), 200 mg of Myo-inositol (manufactured by Sigma-Aldrich Co. LLC.), 2 mg of nicotinic acid (manufactured by Wako Pure Chemical Industries, Ltd.), 2 mg of pyridoxine hydrochloride (manufactured by Wako Pure Chemical Industries, Ltd.), 20 mg of thiamine hydrochloride (manufactured by Wako Pure Chemical Industries, Ltd.), 20 g of sucrose (manufactured by Wako Pure Chemical Industries, Ltd.), and 1 g of MES (manufactured by DOJINDO LABORATORIES) per 1 L of water and having pH adjusted to 5.8), thereby preparing a medium containing the compound of the present invention at a concentration of 10 ppm.
Seeds of Nicotiana benthamiana were seeded in the 5 μL of the medium and cultured overnight at 22° C. Thereafter, 45 μL of the medium containing the compound of the present invention at a concentration of 10 ppm was added thereto, and the seeds are cultivated for 7 days at 22° C., an illuminance of 4,000 lux, and a day length of 16 hours, and the nursery plants raised from the Nicotiana benthamiana were treated with the compound. Moreover, instead of the above medium, a test plot, which was obtained by performing the same treatment by using a medium prepared by adding DMSO to the Murashige•Scoog medium of ½-fold concentration at a volume ratio of 1/1,000, was used as a control plot not treated with the compound.
The nursery plants of the Nicotiana benthamiana treated with the compound were subjected to low-temperature treatment by being cultivated for 7 days at 1.5±1.0° C., an illuminance of 2,000 lux, and a day length of 16 hours.
The nursery plants of the Nicotiana benthamiana having undergone the low-temperature stress treatment were cultivated for 3 days at 22° C., an illuminance of 4,000 lux, and a day length of 16 hours. Thereafter, the area of green leaf was quantified by Scanalyzer HTS (manufactured by LemnaTec GmbH). Moreover, the value of the control plot not treated with the compound that had not yet been subjected to the low-temperature stress treatment was measured in the same manner. A value of a relative leaf area was calculated based on the following equation (1), and if the value of a relative leaf area was 5 or greater, the compound was evaluated to have a mitigating effect. As a result of the evaluation, it was confirmed that when the plant was treated with one of the compounds 1, 8, 9, 13, 18, 19, 22, 23, 29, 32, 33, 34, 39, 40, 41, 43, 44, 51, 53, 54, 55, 56, 58, 60, 62, 63, 64, 65, 67, 69, 71, 73, 74, 75, 77, 79, 82, 83 and 86 of the present invention at 10 ppm, the value of a relative leaf area was 5 or greater, compared to the area of green leaf of the control plot not treated with compound. Accordingly, it was confirmed that the treatment using the compound of the present invention brings about a growth promotion effect.
Relative leaf area=100*(a green area of a plot treated with the compound of the present invention−a green area of a control plot not treated with the compound of the present invention)/(a green area of a control plot not treated with the compound of the present invention that has not yet been subjected to low-temperature stress treatment−a green area of a control plot not treated with the compound of the present invention) Equation (1): […]

[5] = Zea mays, 120 h, read-out: Relative value of score (%- untreated control plot)

Compound	Relative value of score (%- untreated control plot) ([2]; concentration tested 10 ppm) [%]	Relative value of length of seminal root (%-untreated control plot) [3] [%]	change in vivo at 10 ppm [4] [%]	change in vivo at 3 ppm [2, 5] [%]	relative leaf area at 10 ppm (Nicotiana benthamiana) [%]	also measured
COC(=O)c1cc2ccc(C(F)(F)F)cc2o1 [Compound 48]						change in vivo at 0.1 ppm ([1]; Oryza sativa, read-out: Relative value of length of seminal root (%-untreated control plot)): > 5%; change in vivo at 10 ppm ([2]; Zea mays, 120 h, concentration tested 10 ppm, read-out: Relative value of score (%- untreated control plot)): > 5%
COC(=O)c1nc2ccccc2s1 [Compound 30]	>5	>5				
COC(=O)c1cc2c(C(F)(F)F)cccc2[nH]1 [Compound 6]	>5					Relative value of length of seminal root (%-untreated control plot) [1]: >5%
O=C(O)c1nc2cccnc2[nH]1 [Compound 28]	>5	>5				
COC(=O)c1nc2cc(C(F)(F)F)ccc2s1 [Compound 29, methyl 5-trifluoromethylbenzothiazole-2-carboxylate]			> 5	> 5	≥ 5	
COC(=O)c1cc2cc(C(F)(F)F)ccc2[nH]1 [Compound 8, methyl 5-trifluoromethylindole-2-carboxylate]			> 5	> 5	≥ 5	

From patent publication US20150289512A1, “METHOD FOR PROMOTING PLANT GROWTH” (SUMITOMO CHEMICAL COMPANY, LIMITED, priority 2012, published 2015)
